Test results: patent US8703437B2, “Fluorogenic sensors for phospholipase C isozymes” (The University of North Carolina at Chapel Hill, priority 2010, dated 2014)

Molecular target: T1, PLC-γ1 (Homo sapiens, UniProt P19174)
T1 construct: addition of 4 ng of purified full-length wild-type PLC-γ1; made in house; host or cells: insect cells
T1 sequence (P19174 1-1290): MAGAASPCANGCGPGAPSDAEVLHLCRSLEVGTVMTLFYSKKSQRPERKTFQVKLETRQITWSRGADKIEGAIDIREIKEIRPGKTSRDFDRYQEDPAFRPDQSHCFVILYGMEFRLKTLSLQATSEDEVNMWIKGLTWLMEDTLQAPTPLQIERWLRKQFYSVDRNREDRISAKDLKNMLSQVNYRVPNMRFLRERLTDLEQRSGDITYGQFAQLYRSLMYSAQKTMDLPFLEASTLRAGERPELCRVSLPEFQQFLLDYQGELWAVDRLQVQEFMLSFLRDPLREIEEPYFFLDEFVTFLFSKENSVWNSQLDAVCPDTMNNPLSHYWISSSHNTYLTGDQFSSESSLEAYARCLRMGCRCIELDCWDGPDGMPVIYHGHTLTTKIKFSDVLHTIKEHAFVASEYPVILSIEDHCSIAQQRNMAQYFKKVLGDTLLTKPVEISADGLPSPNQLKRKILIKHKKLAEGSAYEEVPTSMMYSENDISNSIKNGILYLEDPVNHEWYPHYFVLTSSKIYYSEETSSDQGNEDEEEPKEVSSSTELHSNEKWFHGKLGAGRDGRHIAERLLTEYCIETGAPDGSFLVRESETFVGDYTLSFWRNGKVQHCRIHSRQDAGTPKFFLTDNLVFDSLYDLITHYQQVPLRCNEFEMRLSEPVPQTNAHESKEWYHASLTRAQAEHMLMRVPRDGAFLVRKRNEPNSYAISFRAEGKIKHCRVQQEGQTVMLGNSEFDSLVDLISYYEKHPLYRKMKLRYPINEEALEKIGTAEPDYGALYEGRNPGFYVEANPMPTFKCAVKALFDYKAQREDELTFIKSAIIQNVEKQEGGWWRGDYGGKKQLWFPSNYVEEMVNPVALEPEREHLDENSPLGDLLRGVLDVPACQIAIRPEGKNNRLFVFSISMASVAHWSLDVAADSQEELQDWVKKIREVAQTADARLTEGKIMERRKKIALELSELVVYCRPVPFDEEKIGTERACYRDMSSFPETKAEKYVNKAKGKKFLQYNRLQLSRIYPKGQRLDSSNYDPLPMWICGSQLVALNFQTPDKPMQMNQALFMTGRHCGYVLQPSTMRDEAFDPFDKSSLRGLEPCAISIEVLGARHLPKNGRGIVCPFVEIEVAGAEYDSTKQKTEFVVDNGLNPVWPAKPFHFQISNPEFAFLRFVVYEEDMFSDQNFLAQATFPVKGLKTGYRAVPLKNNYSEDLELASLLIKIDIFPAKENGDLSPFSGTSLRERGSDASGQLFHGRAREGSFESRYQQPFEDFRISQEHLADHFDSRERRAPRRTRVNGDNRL
Assay: Kinetic studies with PLC-γ1
Assay type: biochemical
Details: endogenous substrate PIP2, [3H]PtdIns-(4,5)P2, liquid scintillation counting, 30° C.
Method: For comparison, the endogenous substrate, PIP2, was also applied in the enzymatic reaction under similar conditions.
The assays were started by the addition of 4 ng of purified full-length wild-type PLC-γ1. The reaction mixtures were then incubated at 30° C., and fluorescence was measured continuously as described above. For kinetic studies with the endogenous PIP2, a mixture of PtdIns-(4,5)P2 (300 μM, Avanti Polar Lipids) and ˜10,000 cpm of [^3H]PtdIns-(4,5)P2 was dried under a stream of nitrogen and resuspended in 0.5% cholate. The resulting lipid stock was diluted to obtain final assay conditions with either 280, 160, 80, 24, or 8 μM PtdIns(4,5)P2 in the same buffer as described above in a final volume of 60 μL. Assays were initiated by the addition of 17 ng of purified full-length wild-type PLC-γ1. After incubation at 30° C. at time intervals between 0-8 min, reactions were stopped by the addition of 200 μL of 10% (v/v) trichloroacetic acid (TCA) and 100 μL of 10 mg/mL BSA to precipitate uncleaved lipids and protein. Centrifugation of the reaction mixture isolated soluble [^3H]Ins(1,4,5)P3, which was quantified using liquid scintillation counting.

Km: 28 ± 2.6 µM | Vmax: 2.7 ± 0.07 pmol/min/ng
Substance: phosphatidylinositol 4,5-bisphosphate [PIP2]
